# Laboratory results reported in patent US20240085425A1, “BIOMARKER AND APPLICATION THEREOF” (ADLAI NORTYE BIOPHARMA CO., LTD., priority 2022, published 2024).
# Experiments:
# Assay in all cases: Tumor cell proliferation inhibition (Promega cell viability, 72 h)
# Type in all cases: cell-based
# [1] = test system: HCT116; details: Homo sapiens, HCT-116, HCT116 cells, read-out: Anti-proliferation IC50
# Method: (§1) The cell lines used in the experiment are various tumor cells, including DU4475, Colo205, HepG2, PLC/PRF/5, BT-20, LS174T, NCI-H929, HCT116, SW620, SK-CO-1, SW480, DLD1, HT-29, SW900, SW1417, HuH7, H2009, PANC-1, SW48, Duadi, H358, HCT15, 22Rv1, Hela, RKO, Raji, Jurkat, NCI-H716, MDA-MB-231, NCI-H157 and THP1, and the inhibitory effect of the compound of the present disclosure on the proliferation of these tumor cells is determined, in order to screen out sensitive cell types of the compound of the present disclosure.
# (§2) DU4475, Colo205, HepG2, PLC/PRF/5, BT-20, LS174T, NCI-H929, HCT116, SW620, SK-CO-1, SW480, DLD1, HT-29, SW900, SW1417, HuH7, H2009, PANC-1, SW48, Duadi, H358, HCT15, 22Rv1, Hela, RKO, Raji, Jurkat, NCI-H716, MDA-MB-231, NCI-H157 and THP1 cell lines cultured in each medium were treated during the logarithmic growth phase, and the cells were collected and prepared into a uniform cell suspension of known concentration, and then added to the 96-well cell culture plate to make each well contain 1000 cells. Put it into a 5% CO2 incubator and incubate at 37° C. for 20-24 h. The next day, the fully dissolved 3-fold gradient diluted compound was added to each cell culture well, so that the final maximum concentration in the cell culture well was 20 μM, and the culture was continued for 72 hours. In this test, Promega's cell viability detection test is used for detection. The more the cells proliferate, the stronger the final signal intensity will be. The detection instrument is SpectraMax, full wavelength mode. The wells with only DMSO added were used as positive control wells, and the wells without cells inoculated were used as negative control wells. The IC50 value of each compound for different cell proliferation inhibition was calculated to evaluate the inhibitory effect of the compound on different tumor cells.
# [2] = test system: HuH7; details: Homo sapiens, Huh-7, HuH7 cells, read-out: Anti-proliferation IC50
# Method: as §1, §2
# [3] = test system: MDA-MB-231; details: Homo sapiens, MDA-MB-231 cells, read-out: Anti-proliferation IC50
# Method: as §1, §2
# [4] = test system: DU4475; details: Homo sapiens, DU-4475, DU4475 cells, read-out: Anti-proliferation IC50
# Method: as §1, §2
# [5] = test system: PLC/PRF/5; details: Homo sapiens, PLC/PRF/5 cells, read-out: Anti-proliferation IC50
# Method: as §1, §2
# [6] = test system: SW900; details: Homo sapiens, SW900 cells, read-out: Anti-proliferation IC50
# Method: as §1, §2
# [7] = test system: NCI-H157; details: Homo sapiens, NCI-H157 cells, read-out: Anti-proliferation IC50
# Method: as §1, §2
# [8] = test system: BT-20; details: Homo sapiens, BT-20 cells, read-out: Anti-proliferation IC50
# Method: as §1, §2
# [9] = test system: HepG2; details: Homo sapiens, HepG2 cells, read-out: Anti-proliferation IC50
# Method: as §1, §2
# [10] = test system: SW620; details: Homo sapiens, SW-620, SW620 cells, read-out: Anti-proliferation IC50
# Method: as §1, §2
# [11] = test system: THP1; details: Homo sapiens, THP-1, THP1 cells, read-out: Anti-proliferation IC50
# Method: as §1, §2
# [12] = test system: Jurkat; details: Homo sapiens, Jurkat cells, read-out: Anti-proliferation IC50
# Method: as §1, §2
# [13] = test system: SW480; details: Homo sapiens, SW480 cells, read-out: Anti-proliferation IC50
# Method: as §1, §2
# [14] = test system: Colo205; details: Homo sapiens, COLO 205, Colo205 cells, read-out: Anti-proliferation IC50
# Method: as §1, §2
# [15] = test system: H2009; details: Homo sapiens, NCI-H2009, H2009 cells, read-out: Anti-proliferation IC50
# Method: as §1, §2
# [16] = test system: NCI-H716; details: Homo sapiens, NCI-H716 cells, read-out: Anti-proliferation IC50
# Method: as §1, §2
# [17] = test system: HT-29; details: Homo sapiens, HT-29 cells, read-out: Anti-proliferation IC50
# Method: as §1, §2
# [18] = test system: PANC-1; details: Homo sapiens, PANC-1 cells, read-out: Anti-proliferation IC50
# Method: as §1, §2
# [19] = test system: RKO; details: Homo sapiens, RKO cells, read-out: Anti-proliferation IC50
# Method: as §1, §2
# [20] = test system: Hela; details: Homo sapiens, Hela cells, read-out: Anti-proliferation IC50
# Method: as §1, §2
# [21] = test system: DLD1; details: Homo sapiens, DLD-1, DLD1 cells, read-out: Anti-proliferation IC50
# Method: as §1, §2
# [22] = test system: Raji; details: Homo sapiens, Raji cells, read-out: Anti-proliferation IC50
# Method: as §1, §2
# [23] = test system: HCT15; details: Homo sapiens, HCT-15, HCT15 cells, read-out: Anti-proliferation IC50
# Method: as §1, §2
# [24] = test system: SW1417; details: Homo sapiens, SW1417 cells, read-out: Anti-proliferation IC50
# Method: as §1, §2
# [25] = test system: SW48; details: Homo sapiens, SW48 cells, read-out: Anti-proliferation IC50
# Method: as §1, §2
# [26] = test system: NCI-H929; details: Homo sapiens, NCI-H929 cells, read-out: Anti-proliferation IC50
# Method: as §1, §2
compound,measurement,setting,value
Cc1nc(C(F)(F)F)ncc1Oc1ccc(CNc2nc(C)c3c(n2)N(C)[C@@H](C)C(=O)N3)cn1 [AN10250484],IC50,[1],0.142 µM
same,IC50,[2],0.0613 µM
same,IC50,[3],> 10 µM
same,IC50,[4],0.0079 µM
same,IC50,[5],0.018 µM
same,IC50,[6],0.0266 µM
same,IC50,[7],> 10 µM
same,IC50,[8],0.022 µM
same,IC50,[9],0.011 µM
same,IC50,[10],0.284 µM
same,IC50,[11],> 10 µM
same,IC50,[12],> 10 µM
same,IC50,[13],0.3 µM
same,IC50,[14],0.009 µM
same,IC50,[15],0.0917 µM
same,IC50,[16],> 10 µM
same,IC50,[17],0.352 µM
same,IC50,[18],0.0475 µM
same,IC50,[19],> 10 µM
same,IC50,[20],> 10 µM
same,IC50,[21],0.315 µM
same,IC50,[22],> 10 µM
same,IC50,[23],> 10 µM
same,IC50,[24],0.0334 µM
same,IC50,[25],> 10 µM
same,IC50,[26],0.129 µM
[2H]C([2H])([2H])N1c2nc(NCc3ccc(Oc4cnc(C(F)(F)F)nc4)nc3)nc3c2N(CCC3)C(=O)[C@]1(C)CO [AN10250399],IC50,[1],0.24 µM
same,IC50,[2],0.106 µM
same,IC50,[3],> 10 µM
same,IC50,[4],0.0369 µM
same,IC50,[5],0.0626 µM
same,IC50,[6],0.0572 µM
same,IC50,[7],> 10 µM
same,IC50,[8],0.135 µM
same,IC50,[9],0.128 µM
same,IC50,[10],0.1 µM
same,IC50,[11],> 10 µM
same,IC50,[12],> 10 µM
same,IC50,[13],0.3 µM
same,IC50,[14],0.043 µM
same,IC50,[15],0.213 µM
same,IC50,[16],> 10 µM
same,IC50,[17],0.131 µM
same,IC50,[18],0.14 µM
same,IC50,[19],> 10 µM
same,IC50,[20],> 10 µM
same,IC50,[21],0.0966 µM
same,IC50,[22],> 10 µM
same,IC50,[23],> 10 µM
same,IC50,[24],0.17 µM
same,IC50,[25],> 10 µM
same,IC50,[26],0.396 µM
